Usually Ki stands for the dissociation constant of the complex between target and ligand, obtained from inhibition or displacement. A higher Ki goes with lower affinity.

For experiment [1], the target named is T1, Sodium-dependent dopamine transporter (Rattus norvegicus, UniProt P23977). Put plainly: Inhibitory constant towards reuptake of [125I]-12 from dopamine transporter in rat striatal membranes. The experiment is classed as cell membranes, Membrane.
Experiment [2] deals with T1, Sodium-dependent dopamine transporter. Put plainly: Inhibitory constant towards reuptake of [125I]-13 from dopamine transporter in rat striatal membranes. The experiment is classed as cell membranes, Membrane.

T1 sequence (P23977 whole entry): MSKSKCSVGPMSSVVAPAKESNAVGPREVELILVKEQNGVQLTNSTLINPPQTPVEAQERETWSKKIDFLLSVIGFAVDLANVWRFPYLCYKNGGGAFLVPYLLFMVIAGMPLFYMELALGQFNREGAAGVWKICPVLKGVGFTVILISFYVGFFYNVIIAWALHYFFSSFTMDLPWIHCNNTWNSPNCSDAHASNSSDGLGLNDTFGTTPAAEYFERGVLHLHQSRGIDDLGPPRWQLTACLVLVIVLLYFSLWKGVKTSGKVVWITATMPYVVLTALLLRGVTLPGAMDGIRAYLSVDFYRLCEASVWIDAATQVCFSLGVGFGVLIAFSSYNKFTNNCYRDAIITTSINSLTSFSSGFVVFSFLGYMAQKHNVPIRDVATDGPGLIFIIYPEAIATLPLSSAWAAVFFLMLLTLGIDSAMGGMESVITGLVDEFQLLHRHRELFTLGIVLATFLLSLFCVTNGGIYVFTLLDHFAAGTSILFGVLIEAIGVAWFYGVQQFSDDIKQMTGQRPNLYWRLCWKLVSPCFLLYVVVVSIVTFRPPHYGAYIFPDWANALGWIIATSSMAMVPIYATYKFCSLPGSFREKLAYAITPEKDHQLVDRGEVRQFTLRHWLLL

For the compound `OC1(c2ccc(Cl)cc2)c2ccccc2C2=NCCN21` (configuration not stated) [MAZINDOL], the Ki was 32 nM in experiment [1] and 41.6 nM in experiment [2].

The values are drawn from ChEMBL document CHEMBL1127517 (J Med Chem, 1994).
